# Where a chain is given by its changes, count along the chain named.
# Assays:
# [1] = system: hyperphosphorylated PHF-Tau; assay: Hippocampal hyperphosphorylated PHF-Tau in Tg2576 mice subjected to CUMS, binding assay with [125I]-labeled AT8 antibody; assay type: in vivo; details: 15 months-old Tg2576 mice, 3 months of CUMS, treated during CUMS; compounds 10 mg/kg/d
# [2] = system: hippocampal neuronal cell bodies (NeuN); assay: Hippocampal neuronal loss in Tg2576 mice subjected to CUMS, binding assay with [125I]-labeled anti-NeuN antibody; assay type: in vivo; details: 15 months-old Tg2576 mice, 3 months of CUMS, treated during CUMS; compounds 10 mg/kg/d
# [3] = target: T1, Tomm6 (Mus musculus, UniProt Q9CQN3); assay: Immunoblot detection of hippocampal Tomm6 protein in treated Tg2576 mice; assay type: in vivo; details: for hippocampal Tomm6 protein content: Tg2576 AD mice subjected to the CUMS protocol, treated during CUMS (10 mg/kg/d)
# T1 construct: hippocampi were isolated from 5-10 aged Tg2576 mice, pulverized under liquid nitrogen and solubilized; from tissue; host or cells: hippocampus of Tg2576 mice
# T1 sequence (Q9CQN3 1-74): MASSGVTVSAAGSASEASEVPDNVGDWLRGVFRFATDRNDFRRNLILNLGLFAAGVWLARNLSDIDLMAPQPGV
# [4] = Toxic adverse effects during 3 months of treatment of Tg2576 AD mice; assay type: in vivo; details: daily dose of 10 mg/kg
# [5] = target: T2, TOMM6 (Homo sapiens, UniProt Q96B49); assay: Screening for TOMM6-inducing compounds in HEK cells, TOMM6 immunoblot; assay type: cell-based; set-up: endogenous in cells; host or cells: HEK cells; details: final concentration 20 microM, 60 h
# T2 sequence (Q96B49 1-74): T1 sequence (Q9CQN3 1-74) with G5T, T7P, S15N, A17T, S18P, V20I, F32Y
# Method: For immunoblot detection of (hippocampal or HEK cell) proteins, e.g. Tomm6/TOMM6 and Atp6v1a/ATP6V1A, (hippocampal) tissue was pulverized under liquid nitrogen, and HEK cell pellets were directly subjected to protein extraction. Proteins were extracted for 30 min at 4° C. with solubilization buffer (1% sodium deoxycholate, 0.1% SDS, 0.1% NP40, 5 mM EDTA, 50 mM Tris, pH 8.0) supplemented with protease/phosphatase inhibitors (Cat. No. P8349, and/or PPC1010, Sigma-Aldrich, St. Louis, Mo., USA). Particulate material was removed by centrifugation at 50 000×g for 20 min at 4° C. Solubilized proteins were concentrated and delipidated by precipitation with ice-cold acetone/methanol (12:2, final concentration 83%) for 90 min at 4° C. The pellet was dissolved in SDS-sample buffer supplemented with 2% SDS, 0.1 M DTT (or 5% mercaptoethanol), and 6 M urea for 90 min at room temperature. Proteins were stored at a concentration of 0.5 mg-1 mg/ml at −70° C. for further use. Immunoblot detection of proteins was performed with affinity-purified antibodies or F(ab)2 fragments of the respective antibodies after separation of proteins by urea-containing SDS-PAGE (7.5%-10%) under reducing conditions and electrophoretic protein transfer to PVDF membranes in a tank transfer cell (Mini Trans-Blot cell, Bio-Rad GmbH, Munchen, Germany). Bound antibodies were visualized with F(ab)2 fragments of enzyme-coupled secondary antibodies (Dianova GmbH, Hamburg, Germany) pre-absorbed to mouse serum proteins, or by enzyme-coupled protein A (EMD Millipore, Merck KGaA, Darmstadt, Germany) as applicable, and followed by enhanced chemiluminescent detection (ECL Plus, and/or ECL Prime, Amersham, GE Healthcare Life Sciences, Glattbrugg, Switzerland).
# TOMM6-inducing compounds were searched for and a screening system was established in HEK cells. HEK cells were cultured in the absence and presence of a test compound at a final concentration of 20 microM. Cells were harvested, proteins were extracted and TOMM6 protein levels were determined in immunoblot with TOMM6-specific antibodies. […] The following TOMM6-interacting (inducing) compounds were identified: Compound-3: N-[(3-chlorophenyl)methyl]-2-(3-piperidyl)oxazole-4-carboxamide; Compound-4: N-[(3,4-dichlorophenyl)methyl]-2-(3-piperidyl)oxazole-4-carboxamide; Compound-5: 2-[(1S)-1-amino-2-methyl-butyl]-N-[(3,4-dichlorophenyl)methyl]oxazole-4-carboxamide; Compound-6: 2-[(1S)-1-amino-2-methyl-propyl]-N-[(3,4-dichlorophenyl)methyl]oxazole-4-carboxamide; Compound-7: 6-(aminomethyl)-4-(4-chlorophenyl)-2-methyl-pyridine-3-carboxamide; Compound-8: 4-(2,4-dichlorophenyl)-6-[(1,3-dioxoisoindolin-2-yl)methyl]-2-methyl-pyridine-3-carboxamide; Compound-9: 4-(4-chlorophenyl)-6-[(1,3-dioxoisoindolin-2-yl)methyl]-2-methyl-pyridine-3-carboxamide; and Compound-10: 4-(4-chlorophenyl)-6-(hydroxymethyl)-2-methyl-pyridine-3-carboxamide).
# [6] = target: T2, TOMM6; assay: Tomm6 induction, test not described
# [7] = system: angiotensin II AT2 receptor (AT2R, AGTR2); assay: AT2R protein aggregation assay in HEK cells, immunoblot; assay type: cell-based, human; details: 10 microM for 72 h
# Method: Proteins were also extracted from yeast cells and HEK cells expressing the indicated protein (i.e. HBsAg or AGTR2) as described above. Neuronal cell loss and hyperphosphorylated Tau in hippocampi of 15 months-old Tg2576 mice subjected to the CUMS protocol for 3 months was determined with crude homogenates of dissected hippocampi by direct binding assay with neuron-specific [^125I]-labeled anti-NeuN antibody (MAB377, clone A60, EMD Millipore, Merck KGaA, Darmstadt, Germany) and [^125I]-labeled AT8 antibody similarly as described (AbdAlla et al., J. Biol. Chem. 284, 6554-6565 (2009)).
# In the second non-Abeta-based protein aggregation assay, different plant extracts were tested in a mammalian cell system, which analyzed the protein aggregation of the angiotensin II AT2 receptor (AT2R, AGTR2) protein in human embryonic kidney (HEK) cells. The system has physiological relevance because this cellular system is capable to reproduce AT2R protein aggregation, which also occurs in brains of AD patients and AD animal models (AbdAlla et al., J. Biol. Chem. 284, 6554-6565 (2009); AbdAlla et al., J. Biol. Chem. 284, 6566-6574 (2009)). The AT2 receptor in human embryonic kidney (HEK) cells forms stable dimers/oligomers under pro-oxidant conditions, which are resistant to urea-containing reducing SDS-PAGE (FIG. 2A, and AbdAlla et al., J. Biol. Chem. 284, 6566-6574 (2009)). […]
# [8] = mouse, in vivo, po, 100 mg/kg/day
# [9] = Measurement of serum level in dogs by HPLC; assay type: in vivo, German shepherd dogs; details: for peak serum concentration: t=1 h
# Method: (§1) Serum concentrations of alizarin were determined with serum isolated from the blood of male and female German shepherd dogs (age: 8-9 months) taken at different time points (0.5 h, 1 h, 2 h, 4 h, 6 h, 8 h, 24 h) after oral intake of the indicated doses for 4 weeks. In addition, serum concentrations of alizarin (Compound-1) were determined in male and female Sprague Dawley rats (body weight: 200-250 g) treated for 1 month and/or three months by oral gavage of alizarin at a once daily dose of 100 mg/kg, 50 mg/kg, 25 mg/kg and 12.5 mg/kg. Serum proteins were removed by acetonitrile precipitation, and alizarin was extracted by chloroform before separation on an HPLC-C18 column (Poroshell 120 EC-C18, 3.0×50 mm, Agilent) with an HPLC system (Agilent 1100 Series) and detection at OD245 nm. For quantitative determination of Compound-7 and Compound-10F in rat and dog serum, serum proteins were also removed by acetonitrile precipitation before HPLC analysis as detailed above and detection at OD254 nm.
# [10] = Measurement of serum level in rats by HPLC; assay type: in vivo, Sprague Dawley rats
# Method: as §1
# [11] = Tolerability / toxicity in dogs during four weeks of oral treatment; assay type: in vivo; details: up to an oral dose of 12.5 mg/kg/day
# [12] = Sub-chronic oral toxicity in rats; assay type: in vivo, Sprague Dawley rats
# Method: Sub-chronic toxicity studies in dogs (German Shepherd dogs) and rats (Sprague Dawley rats) were performed by the Center of Applied Analytical and Veterinary Studies, Cairo, Egypt.
# The oral toxicity of alizarin (Compound-1) in rats was determined in a sub-chronic toxicity study. Rats were treated for 3 months with a once daily oral dose of alizarin of 25 mg/kg/day, 50 mg/kg/day and 100 mg/kg/day. […] The good tolerability of alizarin in rats and dogs is supported by previous observations in humans, which document that long-term treatment for several years with alizarin and alizarin-containing plant extracts is not toxic and was previously used to prevent recurrence of calcium-containing urinary stones (Lorenz et al., Methods Find. Exp. Clin. Pharmacol. 7, 637-643, 1985). Taken together, alizarin has good oral bioavailability and a wide therapeutic window.
# Pharmacokinetic data of Compound-7 were determined as another representative TOMM6/Tomm6 inducer with a different chemical structure than alizarin (Compound-1). […] The oral bioavailability of Compound-7 in dogs was much higher than in rats because oral doses of Compound-7 required to achieve equivalent peak serum concentrations were approximately 10-fold higher in rats compared to dogs (FIG. 20B). Again, this observation is in agreement with the equivalent surface area dosage rule, according to which rats and mice usually require a 10-12-fold higher dose than dogs and humans. […] This second peak could reflect enterohepatic recirculation of Compound-7.
# [13] = rats, repeated once daily oral intake of 20 mg/kg/d
compound,measurement,setting,value
"Cc1nc(CO)cc(-c2ccc(Cl)cc2)c1C(N)=O [Compound-10, 4-(4-chlorophenyl)-6-(hydroxymethyl)-2-methyl-pyridine-3-carboxamide]",hippocampal content of hyperphosphorylated PHF-Tau,[1],significantly inhibited the hippocampal accumulation of hyperphosphorylated PHF tau
same,hippocampal neuronal loss,[2],retarded the CUMS-induced hippocampal neuronal loss
same,hippocampal Tomm6 protein content,[3],significantly higher
same,toxic adverse effects,[4],did not show any detectable toxic adverse effects
same,TOMM6 protein level in HEK cells,[5],inducers of TOMM6
C[C@@H]1CCO[C@H]2Cn3cc(C(=O)NCc4ccc(F)cc4F)c(=O)c(O)c3C(=O)N12 [dolutegravir],Tomm6 induction,[6],not a Tomm6 inducer
"O=C(O)c1c(O)c(O)c2c(c1O)C(=O)c1ccccc1C2=O [Compound-2, purpurin-3-carboxylic acid]",aggregation of the AT2 receptor,[7],inhibited the aggregation of the AT2 receptor
same,hippocampal content of hyperphosphorylated PHF-Tau,[1],inhibited hippocampal PHF-Tau hyperphosphorylation
same,hippocampal neuronal loss,[2],prevented the CUMS-induced hippocampal neuronal loss
same,hippocampal protein content of Tomm6,[3]; aged Tg2576 mice treated for 6 months,substantially increased
same,daily food intake / food consumption,[8],did not significantly alter
"Cc1nc(CN)cc(-c2ccc(Cl)cc2)c1C(N)=O [Compound-7, 6-(aminomethyl)-4-(4-chlorophenyl)-2-methyl-pyridine-3-carboxamide]",hippocampal content of hyperphosphorylated PHF-Tau,[1],decreased hippocampal PHF tau hyperphosphorylation
same,hippocampal neuronal loss,[2],retarded overt neuronal loss
same,hippocampal Tomm6 protein content,[3],strong increase in hippocampal Tomm6 protein content
same,oral bioavailability / serum concentrations after oral intake,[9],has oral bioavailability
same,peak serum concentration,[9]; repeated once daily oral dose of 2 mg/kg,0.59 µg/mL
same,peak serum concentration,[9]; repeated once daily oral dosing of 5 mg/kg,1.56 µg/mL
same,peak serum concentration,[9]; repeated once daily oral dosing of 12.5 mg/kg,3.96 µg/mL
same,oral bioavailability / serum concentrations after oral intake,[10]; rats,has oral bioavailability
same,"oral doses required to achieve equivalent peak serum concentrations, higher in rats compared to dogs",[10]; rats vs dogs,approximately 10 fold
same,time of peak serum concentration,[10]; [13],1 h
same,time of second serum peak,[10]; [13],3 h
same,toxic side effects,[11],did not show any detectable toxic side effects
same,daily food intake,"[12]; rats, daily oral dose of 100 mg/kg/d",slightly decreased daily food intake
same,toxic side effects,"[12]; rats, up to an oral dose of 50 mg/kg/day, four weeks",did not show any detectable toxic side effects
same,difference between therapeutic and toxic doses (therapeutic index),[12]; therapeutic dose 10 mg/kg once daily in rodent models,approximately 10 fold
same,TOMM6 protein level in HEK cells,[5],inducers of TOMM6

# Source: patent US20210186947A1, “TOMM6-INTERACTING EXTRACTS AND COMPOUNDS FOR USE IN THE TREATMENT AND PROPHYLAXIS OF NERVOUS SYSTEM DISEASES, ATHEROSCLEROSIS, HEPATITIS B INFECTION AND HUMAN PAPILLOMA VIRUS (HPV) INFECTION” (ETH ZURICH, priority 2018, published 2021)
